This is an account of results in patent publication US20100298141A1, “SUBSTITUTED PYRIDINE N-OXIDE HERBICIDES” (E. I. DU PONT DE NEMOURS AND COMPANY, priority 2007, published 2010).

The test system of assay [1] is blackgrass. The assay is described as follows: Test D preemergence test. It is filed as in vivo, Alopecurus myosuroides. Conditions: scale 0 to 100. The text has this: (§1) Seeds of plant species selected from annual bluegrass (Poa annua), blackgrass (Alopecurus myosuroides), downy bromegrass (Bromus tectorum), field violet (Viola arvensis), green foxtail (Setaria viridis), Italian ryegrass (Lolium multiflorum), littleseed canarygrass (Phalaris minor), spring wheat (Triticum aestivum), wild oat (Avena fatua), […]), winter barley (Hordeum vulgare), and winter wheat (Triticum aestivum) were planted and treated preemergence with test chemicals formulated in a non-phytotoxic solvent mixture which included a surfactant. […] A dash (-) response means no test result.

Assay [2] has as its system field sandbur. The assay is described as follows: Test G preemergence test. It is filed as in vivo, Cenchrus incertus. To be noted: scale 0 to 100.
Assay [3] relates to corn. Put plainly: Test G preemergence test. In kind it is in vivo, Zea mays. Conditions: scale 0 to 100.
In assay [4] the test system is lambsquarters. The assay is described as follows: Test G preemergence test. It is filed as in vivo, Chenopodium album. To be noted: scale 0 to 100.
Assay [5] deals with green foxtail. The assay is described as follows: Test D preemergence test. It is filed as in vivo, Setaria viridis. To be noted: scale 0 to 100.
Source text: as §1

Assay [6] has as its system barnyardgrass. The assay is described as follows: Test B flooded paddy test. In kind it is in vivo, Echinochloa crus-galli. To be noted: Flood, 250 g ai/ha, 13 to 15 days; scale 0 to 100, 0 no effect, 100 complete control. An excerpt: (§2) At time of treatment, test pots were flooded to 3 cm above the soil surface, treated by application of test compounds directly to the paddy water, and then maintained at that water depth for the duration of the test. Treated plants and controls were maintained in a greenhouse for 13 to 15 days, after which time all species were compared to controls and visually evaluated. […] A dash (-) response means no test result.

Assay [7] relates to tall waterhemp. The assay is described as follows: Test G preemergence test. In kind it is in vivo, Amaranthus tuberculatos. Conditions: scale 0 to 100.
Assay [8] relates to barnyardgrass. The assay is described as follows: Test G preemergence test. In kind it is in vivo, Echinochloa crus-galli. Conditions: scale 0 to 100.
For assay [9], the system named is Redstem. The assay is described as follows: Test C flooded paddy test. It is filed as in vivo. To be noted: Flood.
Source text: as §2

The test system of assay [10] is Ricefield Bulrush. The assay is described as follows: Test C flooded paddy test. In kind it is in vivo. To be noted: Flood.
Source text: as §2

Assay [11] deals with sugarcane. The assay is described as follows: Test F pre-/postemergence test. Conditions: for Sugarcane plant response rating: postemergence. In kind it is in vivo, Saccharum officinarum. The text has this:
Seeds of plant species selected from bermudagrass (Cynodon dactylon), Surinam grass (Brachiaria decumbens), large crabgrass (Digitaria sanguinalis), green foxtail (Setaria viridis), goosegrass (Eleusine indica), johnsongrass (Sorghum halepense), kochia (Kochia scoparia), pitted morningglory (Ipomoea lacunosa), purple nutsedge (Cyperus rotundus), common ragweed (Ambrosia elation), mustard (Brassica nigra), guineagrass (Panicum maximum), […] (Paspalum dilatatum), barnyardgrass (Echinochloa crus-galli), southern sandbur (Cenchrus echinatus), common sowthistle (Sonchus oleraceous), prickly […] spinosa), Italian ryegrass (Lolium multiflorum), common purslane (Portulaca oleracea), broadleaf signalgrass (Brachiaria platyphylla), common groundsel (Senecio vulgaris), common chickweed (Stellaria media), Virginia dayflower (Commelina virginica), annual bluegrass (Poa annua), naked crabgrass (Digitaria nuda), […] cochinchinensis), quackgrass (Elytrigia repens), Canada horseweed (Conyza canadensis), field bindweed (Convolvulus arvensis), […] (Bidens bipinnata), common mallow (Malva sylvestris), Russian thistle (Salsola kali), and sugarcane (Saccharum officinarum) were planted and treated preemergence with test chemicals formulated in a non-phytotoxic solvent mixture which included a surfactant. At a different time, sugarcane was treated with postemergence applications of some of the test chemicals formulated in the same manner. Plants were approximately 3- to 4-leaf stage for the postemergence treatments. Treated plants and controls were maintained in a greenhouse for 14 to 21 days, after which time all species were compared to controls and visually evaluated. […] A dash (-) response means no test result.

The mark [12] stands for this setting: 31 g ai/ha, scale 0 to 100 (0 no effect, 100 complete control).
Where [13] appears, read: 62 g ai/ha, scale 0 to 100, 0 no effect, 100 complete control, 13 to 15 days.
Setting [14] is: 125 g ai/ha, scale 0 to 100, 0 no effect, 100 complete control, 13 to 15 days.
Setting [15] is: 250 g ai/ha, scale 0 to 100 (0 no effect, 100 complete control).

As for `Cn1nc(C(F)(F)F)c(CS(=O)(=O)c2cccc[n+]2[O-])c1OC(F)F` [Compound 4], the “Plant response rating, Blackgrass” value is 0 in [1] (31 g ai/ha), 30 in assay [1] (62 g ai/ha), 50 in [1] (125 g ai/ha) and 100 in assay [1] (250 g ai/ha). The “Plant response rating, Sandbur” value amounted to 0 in assay [2] (31 g ai/ha), 30 in assay [2] (62 g ai/ha), 60 in assay [2] (125 g ai/ha) and 100 in assay [2] (250 g ai/ha). Moreover, the “Plant response rating, Corn” value in assay [3] (31 g ai/ha) amounted to 0; in assay [3] (62 g ai/ha) it was 0; in assay [3] (125 g ai/ha), 5; in assay [3] (250 g ai/ha) it was 0. Moreover, the “Plant response rating, Lambsquarters” value was determined as 0 in [4] (31 g ai/ha), 10 in [4] (62 g ai/ha), 10 in assay [4] (125 g ai/ha) and 10 in assay [4] (250 g ai/ha). The “Plant response rating, Foxtail, Green” value in assay [5] (31 g ai/ha) worked out at 40; in assay [5] (62 g ai/ha), 50; in assay [5] (125 g ai/ha), 50; in [5] (250 g ai/ha), 100. Further, the “Plant response rating, Barnyardgrass” value in assay [6] turned out to be 80; in assay [8] (31 g ai/ha), 70; in assay [8] (62 g ai/ha), 100; in [8] (125 g ai/ha), 100; in assay [8] (250 g ai/ha), 100. The “Plant response rating, Waterhemp” value is 80 in assay [7] (31 g ai/ha), 100 in assay [7] (62 g ai/ha), 100 in assay [7] (125 g ai/ha) and 100 in [7] (250 g ai/ha). Also, the “Plant response rating, Redstem” value was 40 in assay [9] (setting [12]), 55 in assay [9] (setting [13]), 85 in [9] (setting [14]) and 80 in assay [9] (setting [15]). For the same molecule, the “Plant response rating, Ricefield Bulrush” value worked out at 0 in assay [10] (setting [12]), 0 in assay [10] (setting [13]), 60 in assay [10] (setting [14]) and 80 in [10] (setting [15]).

`Cn1nc(C(F)(F)F)c(C[S+]([O-])c2ccc(Cl)c[n+]2[O-])c1OC(F)F` (centres unmarked) [Compound 6]: in assay [6], the “Plant response rating, Barnyardgrass” value is given as 80.

As for `CC(c1c(C(F)(F)F)nn(C)c1OC(F)F)S(=O)(=O)c1cccc[n+]1[O-]` (centres unmarked) [Compound 5], the “Sugarcane plant response rating” value in assay [11] (62 g ai/ha, scale 0 to 100) is on record as 0; in assay [11] (setting [15]), 7. Also, in assay [11] (250 g ai/ha, preemergence, scale 0 to 100), the “Plant response rating, Sugarcane” value was 7. In addition, in assay [6], the “Plant response rating, Barnyardgrass” value is recorded as 80. For the same molecule, the “Plant response rating, Redstem” value in assay [9] (setting [12]) was 40; in [9] (setting [13]) it was 80; in [9] (setting [14]), 80; in assay [9] (setting [15]), 80. The “Plant response rating, Ricefield Bulrush” value in assay [10] (setting [12]) amounted to 0; in assay [10] (setting [13]), 45; in [10] (setting [14]), 80; in assay [10] (setting [15]) it was 85.

As to `Cc1cc[n+]([O-])c([S+]([O-])Cc2c(C(F)(F)F)nn(C)c2OC(F)F)c1` (centres unmarked) [Compound 1], the “Plant response rating, Blackgrass” value in [1] (31 g ai/ha) stood at 5; in assay [1] (62 g ai/ha), 60; in assay [1] (125 g ai/ha) it was 70; in assay [1] (250 g ai/ha) it was 100. The “Plant response rating, Sandbur” value in [2] (31 g ai/ha) was determined as 0; in assay [2] (62 g ai/ha) it was 40; in assay [2] (125 g ai/ha), 65; in assay [2] (250 g ai/ha) it was 100. The “Plant response rating, Corn” value in [3] (31 g ai/ha) is 0; in [3] (62 g ai/ha), 5; in [3] (125 g ai/ha), 10; in assay [3] (250 g ai/ha), 45. Also, the “Plant response rating, Lambsquarters” value is 0 in [4] (31 g ai/ha), 100 in assay [4] (62 g ai/ha), 100 in [4] (125 g ai/ha) and 100 in [4] (250 g ai/ha). For the same molecule, the “Plant response rating, Foxtail, Green” value amounted to 0 in assay [5] (31 g ai/ha), 95 in assay [5] (62 g ai/ha), 100 in assay [5] (125 g ai/ha) and 100 in assay [5] (250 g ai/ha). The “Plant response rating, Barnyardgrass” value turned out to be 80 in assay [6]; 20 in assay [8] (31 g ai/ha); 65 in assay [8] (62 g ai/ha); 100 in assay [8] (125 g ai/ha); 100 in [8] (250 g ai/ha). In addition, the “Plant response rating, Waterhemp” value in [7] (31 g ai/ha) worked out at 40; in assay [7] (62 g ai/ha) it was 100; in [7] (125 g ai/ha) it was 100; in assay [7] (250 g ai/ha), 100. Further, the “Plant response rating, Redstem” value is recorded as 40 in [9] (setting [12]), 60 in [9] (setting [13]), 80 in [9] (setting [14]) and 85 in assay [9] (setting [15]). The “Plant response rating, Ricefield Bulrush” value was 75 in assay [10] (setting [12]), 75 in assay [10] (setting [13]), 75 in assay [10] (setting [14]) and 85 in assay [10] (setting [15]).

Regarding `Cn1nc(C(F)(F)F)c(CS(=O)(=O)c2ccc(Cl)c[n+]2[O-])c1OC(F)F` [Compound 7], the “Plant response rating, Blackgrass” value in assay [1] (31 g ai/ha) was determined as 0; in assay [1] (62 g ai/ha) it was 0; in assay [1] (125 g ai/ha), 0; in assay [1] (250 g ai/ha), 80. Besides, the “Plant response rating, Sandbur” value in [2] (31 g ai/ha) is on record as 0; in [2] (62 g ai/ha), 0; in assay [2] (125 g ai/ha) it was 0; in assay [2] (250 g ai/ha) it was 75. Further, the “Plant response rating, Corn” value in assay [3] (31 g ai/ha), in assay [3] (62 g ai/ha), in assay [3] (125 g ai/ha) and in assay [3] (250 g ai/ha) was 0 each time. The “Plant response rating, Lambsquarters” value in assay [4] (31 g ai/ha) is on record as 0; in assay [4] (62 g ai/ha), 0; in assay [4] (125 g ai/ha), 0; in [4] (250 g ai/ha), 15. Also, the “Plant response rating, Foxtail, Green” value was 0 in assay [5] (31 g ai/ha), 20 in [5] (62 g ai/ha), 20 in assay [5] (125 g ai/ha) and 55 in [5] (250 g ai/ha). For the same molecule, the “Plant response rating, Barnyardgrass” value in [6] was found to be 80; in assay [8] (31 g ai/ha), 0; in assay [8] (62 g ai/ha), 15; in assay [8] (125 g ai/ha), 60; in assay [8] (250 g ai/ha), 100. For the same molecule, the “Plant response rating, Waterhemp” value in [7] (31 g ai/ha) came to 15; in assay [7] (62 g ai/ha) it was 60; in [7] (125 g ai/ha), 100; in assay [7] (250 g ai/ha), 100.
